Test system: Murine erythroleukemia (MEL) cells
Experiment: MEL cell differentiation assay (benzidine assay, 5-day culture)
Assay type: cell-based
Details: Table 2, "No inh" = words
Method: (§1) Murine erythroleukemia (MEL) cell differentiation. The MEL cell differentiation assay was used to assess the ability of Compound 1 to induce terminal differentiation. MEL cells (logarithmically dividing) were cultured with the indicated concentrations of Compound 1. Following a 5-day culture period, cell growth was determined using a Coulter Counter and differentiation was determined microscopically using the benzidine assay to determine hemoglobin protein accumulation on a per cell basis.
as §1, with “The” for “Murine erythroleukemia (MEL) cell differentiation. The”, “2” for “1”, “2.” for “1.”, “period” for “period, cell growth was determined using a Coulter Counter and”
as §1, with “The” for “Murine erythroleukemia (MEL) cell differentiation. The”, “3” for “1”, “3.” for “1.”, “period” for “period, cell growth was determined using a Coulter Counter and”
as §1, with “The” for “Murine erythroleukemia (MEL) cell differentiation. The”, “4” for “1”, “4.” for “1.”, “period” for “period, cell growth was determined using a Coulter Counter and”, “accumulaiton” for “accumulation”
All the compounds which were prepared were tested. […] Table 2 is compiled from experiments similar to the experiments described in Examples 7-10 above.

Compound	MEL cell growth (cell count) [cells/ml × 10^−5]
O=C(/C=C/c1cccc(C(C(=O)Nc2cccc3cccnc23)C(=O)Nc2cccc3cccnc23)c1)NO [Structure 690]	2.5
O=C(/C=C/c1cccc(CC(=O)Nc2ccccc2)c1)NO [Structure 689]	2.0
O=C(CCCCCC(C(=O)Nc1ccc2ncccc2c1)C(=O)Nc1ccc2ncccc2c1)NO [Structure 692]	18.0

Reference: US20040002506A1, “Novel class of cytodifferentiating agents and histone deacetylase inhibitors, and methods of use thereof” (Sloan Kettering Institute for Cancer Research, priority 1999, published 2004)
